Measurements: patent US8008291B2 (Mimetica Pty Ltd, priority 2008, dated 2011)

Biological target: T1, human MC5R (hMC5R) (Homo sapiens, UniProt P33032)
T1 construct: purchased Perkin Elmer RBXMC5M400UA
Experiment: Human MC5R radioligand binding assay (membranes, [125I] NDP-MSH displacement)
Conditions: hMC5R binding; tested as trifluoroacetate or hydrochloride salts, or free bases; read-out: MC5R radioligand IC50
Procedure, shortened: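 Displacement of [125I]NDP-MSH (radioiodinated in house, HPLC-purified) from hMC5R membranes by test compound measured after 1 hr incubation at 37° C.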

T1 sequence (P33032 whole entry): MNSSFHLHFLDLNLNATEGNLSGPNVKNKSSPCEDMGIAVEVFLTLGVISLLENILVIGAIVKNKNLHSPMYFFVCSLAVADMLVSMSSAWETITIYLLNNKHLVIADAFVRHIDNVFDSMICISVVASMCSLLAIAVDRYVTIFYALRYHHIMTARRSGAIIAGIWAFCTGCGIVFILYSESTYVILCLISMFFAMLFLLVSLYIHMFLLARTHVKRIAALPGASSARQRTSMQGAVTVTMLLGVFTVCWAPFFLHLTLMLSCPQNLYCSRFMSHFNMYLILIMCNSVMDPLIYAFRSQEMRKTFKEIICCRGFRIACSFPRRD

Row | IC50 [nM] | Structure (SMILES)
1 | < 10000 | C[C@@H](CN1CC[C@@H](CNC(=O)c2ccc3ccccc3c2)N[C@@H](CCN)C1=O)c1ccc(Cl)cc1 [Compound 421, N-(((3S,5S)-3-(2-aminoethyl)-1-((R)-2-(4-chlorophenyl)propyl)-2-oxo-1,4-diazepan-5-yl)methyl)-2-naphthamide]
2 | < 1000 | CC1CC(C)CC(CN2CC[C@@H](CNC(=O)c3ccc(Cl)c(Cl)c3)N[C@@H](CCNC(C)C)C2=O)C1 (stereo partly drawn) [Compound 387, 3,4-dichloro-N-(((3S,5S)-1-((3,5-dimethylcyclohexyl)methyl)-3-(2-(isopropylamino)ethyl)-2-oxo-1,4-diazepan-5-yl)methyl)benzamide]
3 | < 100 | CC[C@H](CN1CC[C@@H](CNC(=O)c2ccc(-c3ccccc3)cc2)N[C@@H](CCN2CCCCC2)C1=O)c1ccccc1 [Compound 495, N-(((3S,5S)-2-oxo-1-((S)-2-phenylbutyl)-3-(2-(piperidin-1-yl)ethyl)-1,4-diazepan-5-yl)methyl)biphenyl-4-carboxamide]
4 | < 1000 | N=C(N)NCCC[C@@H]1N[C@H](CNC(=O)c2ccc(-c3ccccc3)cc2)CCN(CC2CCCCC2)C1=O [Compound 480, N-(((3S,5S)-1-(cyclohexylmethyl)-3-(3-guanidinopropyl)-2-oxo-1,4-diazepan-5-yl)methyl)biphenyl-4-carboxamide]
5 | < 10000 | CC[C@H](CN1CC[C@@H](CNC(=O)c2ccc(Cl)c(Cl)c2)N[C@@H](CCN2C(=O)CC(C)(C)C2=O)C1=O)c1ccccc1 [Compound 492, 3,4-dichloro-N-(((3S,5S)-3-(2-(3,3-dimethyl-2,5-dioxopyrrolidin-1-yl)ethyl)-2-oxo-1-((S)-2-phenylbutyl)-1,4-diazepan-5-yl)methyl)benzamide]
6 | < 100 | CC[C@H](CN1CC[C@@H](CNC(=O)c2csc(-c3ccccc3)n2)N[C@@H](CCN2CCCCC2)C1=O)c1ccccc1 [Compound 496, N-(((3S,5S)-2-oxo-1-((S)-2-phenylbutyl)-3-(2-(piperidin-1-yl)ethyl)-1,4-diazepan-5-yl)methyl)-2-phenylthiazole-4-carboxamide]
7 | < 10000 | Cc1ccc(S(=O)(=O)NCC[C@@H]2N[C@H](CNC(=O)c3ccc(Cl)c(Cl)c3)CCN(Cc3ccc(Cl)cc3Cl)C2=O)cc1 [Compound 505, 3,4-dichloro-N-(((3S,5S)-1-(2,4-dichlorobenzyl)-3-(2-(4-methylphenylsulfonamido)ethyl)-2-oxo-1,4-diazepan-5-yl)methyl)benzamide]
8 | < 1000 | CC(=O)NCCC[C@@H]1N[C@H](CNC(=O)/C=C/c2ccc(C)cc2)CCN(CC(c2ccccc2)c2ccccc2)C1=O [Compound 293, (E)-N-(((3S,5S)-3-(3-acetamidopropyl)-1-(2,2-diphenylethyl)-2-oxo-1,4-diazepan-5-yl)methyl)-3-p-tolylacrylamide]
9 | < 1000 | CCCOC(CN1CC[C@@H](CNC(=O)c2ccc3ccccc3c2)N[C@@H](CCCNC(=N)N)C1=O)c1ccccc1 (stereo partly drawn) [Compound 290, N-(((3S,5S)-3-(3-guanidinopropyl)-2-oxo-1-(2-phenyl-2-propoxyethyl)-1,4-diazepan-5-yl)methyl)-2-naphthamide]
10 | < 10 | CC[C@H](CN1CC[C@@H](CNC(=O)/C=C/c2ccc(Cl)cc2)N[C@@H](CCN2CCCCC2)C1=O)c1ccccc1 [Compound 365, (E)-3-(4-chlorophenyl)-N-(((3S,5S)-2-oxo-1-((S)-2-phenylbutyl)-3-(2-(piperidin-1-yl)ethyl)-1,4-diazepan-5-yl)methyl)acrylamide]
11 | < 100 | O=C(NC[C@@H]1CCN(Cc2cc(Cl)cc(Cl)c2Cl)C(=O)[C@H](CCN2CCCCC2)N1)c1ccc2cc(Cl)ccc2c1 [Compound 522, 6-chloro-N-(((3S,5S)-2-oxo-3-(2-(piperidin-1-yl)ethyl)-1-(2,3,5-trichlorobenzyl)-1,4-diazepan-5-yl)methyl)-2-naphthamide]
12 | < 10 | CC[C@H](CN1CC[C@@H](CNC(=O)c2ccc(Cl)c(Cl)c2)N[C@@H](CCN(C(C)C)C(C)C)C1=O)c1ccccc1 [Compound 445, 3,4-dichloro-N-(((3S,5S)-3-(2-(diisopropylamino)ethyl)-2-oxo-1-((S)-2-phenylbutyl)-1,4-diazepan-5-yl)methyl)benzamide]
13 | < 1000 | C#Cc1cc(C#C)cc(CN2CC[C@@H](CNC(=O)c3ccc4ccccc4c3)N[C@@H](CCCN)C2=O)c1 [Compound 360, N-(((3S,5S)-3-(3-aminopropyl)-1-(3,5-diethynylbenzyl)-2-oxo-1,4-diazepan-5-yl)methyl)-2-naphthamide]
14 | < 100 | CC[C@H](CN1CC[C@@H](CNC(=O)c2ccc(Cl)c(Cl)c2)N[C@@H](CCN(C)C(C)(C)C)C1=O)c1ccccc1 [Compound 454, N-(((3S,5S)-3-(2-(tert-butyl(methyl)amino)ethyl)-2-oxo-1-((S)-2-phenylbutyl)-1,4-diazepan-5-yl)methyl)-3,4-dichlorobenzamide]
15 | < 10000 | CC1CCCC(C)C1CN1CC[C@@H](CNC(=O)c2ccc3ccccc3c2)N[C@@H](CCCN)C1=O (stereo partly drawn) [Compound 384, N-(((3S,5S)-3-(3-aminopropyl)-1-((2,6-dimethylcyclohexyl)methyl)-2-oxo-1,4-diazepan-5-yl)methyl)-2-naphthamide]
16 | < 1000 | NCC[C@@H]1N[C@H](CCNC(=O)c2ccc3ccccc3c2)CCN(CC(c2ccccc2)c2ccccc2)C1=O [Compound 303, N-(2-((3S,5R)-1-(2,2-diphenylethyl)-2-oxo-3-(2-aminoethyl)-1,4-diazepan-5-yl)ethyl)-2-naphthamide]
17 | < 100 | CC[C@H](CN1CC[C@@H](CNC(=O)c2ccc(Cl)c(Cl)c2)N[C@@H](CCNC(C)C)C1=O)c1ccccc1 [Compound 465, 3,4-dichloro-N-(((3S,5S)-3-(2-(isopropylamino)ethyl)-2-oxo-1-((S)-2-phenylbutyl)-1,4-diazepan-5-yl)methyl)benzamide]
18 | < 100 | O=C(NC[C@@H]1CCN(Cc2cc(Cl)cc(Cl)c2)C(=O)[C@H](CCN2CCCCC2)N1)c1ccc2ccccc2c1 [Compound 327, N-(((3S,5S)-1-(3,5-dichlorobenzyl)-2-oxo-3-(2-(piperidin-1-yl)ethyl)-1,4-diazepan-5-yl)methyl)-2-naphthamide]
19 | < 100 | CC[C@H](CN1CC[C@@H](CNC(=O)c2ccc3cc(Cl)ccc3c2)N[C@@H](CCNS(=O)(=O)C(C)C)C1=O)c1ccccc1 [Compound 523, 6-chloro-N-(((3S,5S)-3-(2-(1-methylethylsulfonamido)ethyl)-2-oxo-1-((S)-2-phenylbutyl)-1,4-diazepan-5-yl)methyl)-2-naphthamide]
20 | < 10000 | N=C(N)NCCC[C@@H]1N[C@H](CNC(=O)[C@@H]2Cc3ccccc3CN2)CCN(CC(c2ccccc2)c2ccccc2)C1=O [Compound 131, (S)—N-(((3S,5S)-1-(2,2-diphenylethyl)-3-(3-guanidinopropyl)-2-oxo-1,4-diazepan-5-yl)methyl)-1,2,3,4-tetrahydroisoquinoline-3-carboxamide]
21 | < 100 | O=C(/C=C/c1ccc(OC(F)(F)F)c(F)c1)NC[C@@H]1CCN(Cc2cc(Cl)cc(Cl)c2)C(=O)[C@H](CCN2CCCCC2)N1 [Compound 536, (E)-N-(((3S,5S)-1-(3,5-dichlorobenzyl)-2-oxo-3-(2-(piperidin-1-yl)ethyl)-1,4-diazepan-5-yl)methyl)-3-(3-fluoro-4-(trifluoromethoxy)phenyl)acrylamide]
22 | < 100 | CC1CC(C)CC(CN2CC[C@@H](CNC(=O)c3ccc(Cl)c(Cl)c3)N[C@@H](CCN3CCCCC3)C2=O)C1 (stereo partly drawn) [Compound 386, 3,4-dichloro-N-(((3S,5S)-1-((3,5-dimethylcyclohexyl)methyl)-2-oxo-3-(2-(piperidin-1-yl)ethyl)-1,4-diazepan-5-yl)methyl)benzamide]
23 | < 1000 | O=C(NC[C@@H]1CCN(Cc2ccc(Cl)cc2Cl)C(=O)[C@H](CCN2CCCCC2)N1)c1ccc(Cl)c(Cl)c1 [Compound 503, 3,4-dichloro-N-(((3S,5S)-1-(2,4-dichlorobenzyl)-2-oxo-3-(2-(piperidin-1-yl)ethyl)-1,4-diazepan-5-yl)methyl)benzamide]
24 | < 10 | CC[C@H](CN1CC[C@@H](CNC(=O)c2ccc(Cl)c(Cl)c2)N[C@@H](CCN2CCCC[C@@H]2C)C1=O)c1ccccc1 [Compound 453, 3,4-dichloro-N-(((3S,5S)-3-(2-((S)-2-methylpiperidin-1-yl)ethyl)-2-oxo-1-((S)-2-phenylbutyl)-1,4-diazepan-5-yl)methyl)benzamide]
25 | < 1000 | CC1CC(C)CC(CN2CC[C@@H](CNC(=O)c3ccc4ccccc4c3)N[C@@H](CCN)C2=O)C1 (stereo partly drawn) [Compound 376, N-(((3S,5S)-3-(2-aminoethyl)-1-((3,5-dimethylcyclohexyl)methyl)-2-oxo-1,4-diazepan-5-yl)methyl)-2-naphthamide]
26 | < 10000 | CCCOC(=O)N[C@H](Cc1ccc2ccccc2c1)[C@@H]1CCN(CC(c2ccccc2)c2ccccc2)C(=O)[C@H](CCCNC(=N)N)N1 [Compound 87, propyl (R)-1-((3S,5S)-1-(2,2-diphenylethyl)-3-(3-guanidinopropyl)-2-oxo-1,4-diazepan-5-yl)-2-(naphthalen-2-yl)ethylcarbamate]
27 | < 10000 | N=C(N)NCCC[C@@H]1N[C@H](CNC(=O)c2ccc3ccccc3c2)CCN(CC(C(=O)Nc2ccccc2)c2ccccc2)C1=O (stereo partly drawn) [Compound 344, N-(((3S,5S)-3-(3-guanidinopropyl)-2-oxo-1-(3-oxo-2-phenyl-3-(phenylamino)propyl)-1,4-diazepan-5-yl)methyl)-2-naphthamide]
28 | < 100 | CC[C@H](CN1CC[C@@H](CNC(=O)c2ccc(Cl)c(Cl)c2)N[C@@H](CCN2CCN(C)CC2)C1=O)c1ccccc1 [Compound 431, 3,4-dichloro-N-(((3S,5S)-3-(2-(4-methylpiperazin-1-yl)ethyl)-2-oxo-1-((S)-2-phenylbutyl)-1,4-diazepan-5-yl)methyl)benzamide]
29 | < 1000 | O=C(NC[C@@H]1CCN(CC(c2ccccc2)c2ccccc2)C(=O)[C@H](CCN2CCCCC2)N1)c1cccc(C(F)(F)F)c1 [Compound 436, N-(((3S,5S)-1-(2,2-diphenylethyl)-2-oxo-3-(2-(piperidin-1-yl)ethyl)-1,4-diazepan-5-yl)methyl)-3-(trifluoromethyl)benzamide]
